In PMC8269693 (ACS Chemical Neuroscience, 2021):

Key:
BR6 cells = experiment: Protection from STS-induced cell death, MTT assay, BR6 cells; type: cell-based, human
SH-SY5Y cells = experiment: Protection from STS-induced cell death, MTT assay, TrkB-deficient SH-SY5Y cells; type: cell-based
TrkB [1] = experiment: TrkB activation in BR6 cells; type: cell-based, human; details: data not shown
TrkB [2] = experiment: TrkB activation in SH-SY5Y cells; type: cell-based; details: data not shown
GST-TrkB ECD = GST-TrkB ECD (Homo sapiens, UniProt Q16620); experiment: Biacore binding assay, GST-TrkB ECD
TrkB Ig1 = TrkB Ig1 (Homo sapiens, UniProt Q16620); experiment: Biacore binding assay, TrkB Ig1
TrkB Ig2 = TrkB Ig2 (Homo sapiens, UniProt Q16620); experiment: Biacore binding assay, TrkB Ig2
AD animal models = details: cited from earlier work
5xFAD mice = details: cited from earlier work

TrkB Ig1, sequence (Q16620 182-250): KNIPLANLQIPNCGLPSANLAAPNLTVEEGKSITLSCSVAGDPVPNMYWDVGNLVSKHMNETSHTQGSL
TrkB Ig2, sequence (Q16620 251-340): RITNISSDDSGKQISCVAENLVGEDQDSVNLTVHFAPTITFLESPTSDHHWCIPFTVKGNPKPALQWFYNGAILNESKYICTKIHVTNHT
GST-TrkB ECD, sequence (Q16620 32-428): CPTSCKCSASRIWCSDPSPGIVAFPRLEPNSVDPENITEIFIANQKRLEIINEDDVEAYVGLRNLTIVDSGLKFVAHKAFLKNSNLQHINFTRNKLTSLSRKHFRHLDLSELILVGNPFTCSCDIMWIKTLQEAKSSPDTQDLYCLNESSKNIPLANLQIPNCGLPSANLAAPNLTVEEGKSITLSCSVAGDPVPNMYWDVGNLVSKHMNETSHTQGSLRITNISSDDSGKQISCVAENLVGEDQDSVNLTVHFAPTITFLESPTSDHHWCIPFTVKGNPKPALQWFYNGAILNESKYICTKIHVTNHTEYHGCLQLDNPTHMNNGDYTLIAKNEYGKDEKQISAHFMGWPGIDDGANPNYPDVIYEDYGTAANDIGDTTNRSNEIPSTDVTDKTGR

SMILES | protective profile via MTT assay (BR6 cells) | protective effect via MTT assay (SH-SY5Y cells) | TrkB activation (TrkB [1]) | TrkB activation (TrkB [2]) | Kd (GST-TrkB ECD) [nM] | association with Ig1 domain (TrkB Ig1) | association with Ig2 domain (TrkB Ig2) | levels of Aβ40 and Aβ42 (AD animal models) | learning and memory deficits (AD animal models; different AD animal models) | Aβ deposition (5xFAD mice; chronic oral administration) | memory deficits (5xFAD mice; dose-dependent)
O=c1cc(-c2ccccc2)oc2c(O)c(O)ccc12 [7,8-DHF, 7,8-dihydroxyflavone] | comparable protective profiles | neither of them displayed a demonstrable effect | robustly provoked TrkB activation | barely visible | 184 | none of them associated with the Ig1 or Ig2 domains | none of them associated with the Ig1 or Ig2 domains | reduces the levels of Aβ40 and Aβ42 | rescues learning and memory deficits |  | 
CNC(=O)Oc1ccc2c(=O)cc(-c3ccccc3)oc2c1OC(=O)NC [R13] |  |  |  |  |  |  |  |  |  | inhibits Aβ deposition | improves memory deficits
